Measured values published in patent US20100015262A1, “NOVEL USE OF COMPOUNDS AND COMBINATIONS OF COMPOUNDS FOR IMPROVING THE PHYSICAL APPEARANCE” (priority 2006, published 2010).
Like-named read-outs stand apart in the source and are kept apart here.

Tested on: C3H10T1/2 cells
Assay: Adipocyte differentiation: lipid accumulation in induced C3H10T1/2 pre-adipocytes (Bodipy stain, Cellomics ArrayScan)
Assay type: cell-based
Details: for activity at 1 µM / activity at 5 µM / activity at 25 µM / activity at 0.5 µM / activity at 2 µM: Mus musculus, C3H 10T1/2, 168 h, read-out: Cellular lipids (in % of differentiated cells); for activity at 1 µM / activity at 5 µM / activity at 25 µM / activity at 0.5 µM / activity at 2 µM / Cellular lipids (in % of differentiated cells): 7 days; for Effect on amount of cytoplasmic lipids (in words): single substances, summary of Table 1
Protocol: In the present invention, the effect of agents was identified by using cellular assays that measure the effect on adipocyte differentiation. Adherent pre-adipocyte cells, C3H10T1/2, were used; they were cultured in complete DMEM/FCS, i.e. Dulbecco's modified essential medium (DMEM) supplemented with penicillin/streptomycin [50 U penicillin/ml, […] streptomycin/ml] and 10% fetal calf serum (FCS) and passaged every 3-5 days. For experiments, C3H10T1/2 cells were re-suspended in DMEM/FCS without phenol red and seeded at […] cells/per well in collagen I pre-coated 24-well plates. After 2-3 days cells reached confluence. Culture medium was changed and cell differentiation was induced by adding induction medium consisting of rosiglitazone and insulin (at 50 μmol/L and 200 nmol/L, respectively). In some cases the induction medium consisted of […] dexamethasone and 500 μmol/L 3-isobutyl-1-methylxanthine. Control cells were cultured in DMEM/FCS containing only insulin. Where appropriate, substances were added to the differentiation medium at various concentrations at the time of induction, except for carotenoids which were added at the beginning of culture in order to preload the cells. The induction medium was changed every 2-3-days. Seven days after induction, cells were fixed in 60% isopropanol (40% water). After two washes in phosphate buffered saline (PBS), cells were stained with the neutral lipid stain Bodipy® 493/505 (0.5 μg/ml) and the nuclear stain Hoechst 33342 dye (2 μg/ml) for 30 minutes in the dark. After washing with PBS, the stained cells were stored at 4° C. in PBS. The extent of differentiation was quantified in a Cellomics array™ Array Scan V^Ti (http://www.cellomics.com/) using the Spot Detector BioApplication that had been optimized for detecting lipid accumulation in differentiated adipocytes. Effects of treatments were quantified using the ‘SpotCount’ and ‘SpotCountPerObject’ parameter that adequately reflects the differentiation status of the adipocytes.
The tested compounds were purchased from Sigma (PUFAs, i.e. DHA docosahexaenoic acid; EPA eicosapentaenoic acid) or Cayman Chemicals hydroxytyrosol), from DSM (hydroxytyrosol, resveratrol, genistein) or from Ehrenstorfer GmbH, Augsburg Germany (carotenoids like β-carotene, β-cryptoxanthin, lutein, lycopene, zeaxanithin); rose hip concentrate/powder was purchased from HybenVital (Denmark). The compounds to be tested were dissolved in dimethylsulfoxide (DMSO) or—in the case of carotenoids—in tetrahydrofuran (THF). Cells were preloaded with carotenoids, i.e. these were added to the culture medium when cells were seeded into test plates. Carotenoids were freshly prepared for every experimental series. Vehicle solution was added to reach a final concentration of 0.5% (v/v).
We further tested the effect of substances that were added to cultures concomitantly. The obtained values were then compared to the sum of the effect of individual substances: positive values indicate that two substances interact synergistically and thus surpass the individual effects.

[1] = 1 μM compound + inducers of differentiation
[2] = 5 μM compound + inducers of differentiation
[3] = 25 μM compound + inducers of differentiation
[4] = 0.5 μM carotenoid (cells preloaded) + inducers
[5] = 1.0 μM carotenoid (cells preloaded) + inducers
[6] = 2.0 μM carotenoid (cells preloaded) + inducers

CC/C=C\C/C=C\C/C=C\C/C=C\C/C=C\C/C=C\CCC(=O)O [DHA, docosahexaenoic acid] gave an activity at 1 µM [1] of 95.9%, an activity at 5 µM [2] of 91.5% and an activity at 25 µM [3] of 66.2%.

For CC/C=C\C/C=C\C/C=C\C/C=C\C/C=C\CCCC(=O)O [EPA, eicosapentaenoic acid], the activity at 1 µM [1] was 86.6%, the activity at 5 µM [2] was 77% and the activity at 25 µM [3] was 74.1%.

O=c1c(-c2ccc(O)cc2)coc2cc(O)cc(O)c12 [Genistein, genistein] was tested, and the activity at 1 µM [1] was 112%, the activity at 5 µM [2] was 99.7% and the activity at 25 µM [3] was 95.9%. For the same molecule, the “Effect on amount of cytoplasmic lipids (in words)” value (“Effect on amount” for short) was “only minor effects”.

For OCCc1ccc(O)c(O)c1 [Hydroxytyrosol], the activity at 1 µM [1] was 103%, the activity at 5 µM [2] was 103% and the activity at 25 µM [3] was 68.3%.

Oc1ccc(C=Cc2cc(O)cc(O)c2)cc1 [Resveratrol, resveratrol] was tested, and the activity at 1 µM [1] was 106%, the activity at 5 µM [2] was 102% and the activity at 25 µM [3] was 103%. The “Effect on amount” value was “only minor effects”.

CC1=C(/C=C/C(C)=C/C=C/C(C)=C/C=C/C=C(C)/C=C/C=C(C)/C=C/C2=C(C)CCCC2(C)C)C(C)(C)CCC1 [beta-carotene, β-carotene] gave an activity at 0.5 µM [4] of 93%, an activity at 1 µM [5] of 66.7% and an activity at 2 µM [6] of 69.4%.

In the case of CC1=C[C@H](O)CC(C)(C)[C@H]1/C=C/C(C)=C/C=C/C(C)=C/C=C/C=C(C)/C=C/C=C(C)/C=C/C1=C(C)C[C@@H](O)CC1(C)C [lutein], the activity at 0.5 µM [4] is reported as 94.3%, the activity at 1 µM [5] is reported as 85.6% and the activity at 2 µM [6] is reported as 72.1%.

For CC(C)=CCC/C(C)=C/C=C/C(C)=C/C=C/C(C)=C/C=C/C=C(C)/C=C/C=C(C)/C=C/C=C(\C)CCC=C(C)C [lycopene], the activity at 0.5 µM [4] was 44.5%, the activity at 1 µM [5] was 45.1% and the activity at 2 µM [6] was 24.6%.

In the case of CC1=C(/C=C/C(C)=C/C=C/C(C)=C/C=C/C=C(C)/C=C/C=C(C)/C=C/C2=C(C)C[C@@H](O)CC2(C)C)C(C)(C)C[C@H](O)C1 [zeaxanthin], the “Cellular lipids (in % of differentiated cells)” value [4] is reported as 56.8%, the “Cellular lipids (in % of differentiated cells)” value [5] is reported as 39.5% and the “Cellular lipids (in % of differentiated cells)” value [6] is reported as 43.7%.

In the case of CC1=C(/C=C/C(C)=C/C=C/C(C)=C/C=C/C=C(C)/C=C/C=C(C)/C=C/C2=C(C)C[C@@H](O)CC2(C)C)C(C)(C)CCC1 [β-cryptoxanthin], the “Cellular lipids (in % of differentiated cells)” value [4] is reported as 47.5%, the “Cellular lipids (in % of differentiated cells)” value [5] is reported as 34.9% and the “Cellular lipids (in % of differentiated cells)” value [6] is reported as 16.2%.

With (−)-epigallocatechin gallate [EGCG] the “Cellular lipids (in % of differentiated cells)” value [1] was 113.1%, the “Cellular lipids (in % of differentiated cells)” value [2] was 98.9% and the “Cellular lipids (in % of differentiated cells)” value [3] was 93.1%. The “Effect on amount” value was “only minor effects”.
